US9278996B2, “Dolastatin-10 derivative, method of producing the same and anticancer drug composition containing the same” (CELLTRION, INC., priority 2012, dated 2016)

What was measured:
breast cancer (BT-474) = experiment: Anticancer activity assay (WST-8 cell growth), BT-474; assay type: cell-based; details: Homo sapiens, BT-474, 96 h, read-out: IC50 (nM) BT-474
Protocol: (§1) The compounds of the present invention were assayed for inhibitory activity against 7 cancer cell lines as breast cancer (BT-474), human epithelial cancer (A-431), non-small cell lung cancer (NCI-H460), colon cancer (HT-29), colon cancer (SW-620), breast cancer (MDA-MB-231) and breast cancer (MCF-7).
(§2) Briefly, a suspension of each cancer cell line was serially diluted, and plated at a density of 2˜3×10^3 cells/well into 96-well microplates, followed by incubation at 37° C. for 4 day in a 5% CO2 atmosphere. Cell growth in a monolayer was measured using WST-8 reagemt (Dojindo, Japan).
(§3) IC50 values of the compounds against the cancer cell lines were calculated as compound concentrations at which the cells were grown by 50% OD of the control.

[1] = system: non-small cell lung cancer (NCI-H460); experiment: Anticancer activity assay (WST-8 cell growth), NCI-H460; assay type: cell-based; details: Homo sapiens, NCI-H460, 96 h, read-out: IC50 (nM) NCI-H460
Protocol: as §1, §2, §3

SMILES	IC50 (breast cancer (BT-474)) [nM]	IC50 [1] [nM]
CC[C@H](C)[C@@H]([C@@H](CC(=O)N1C[C@H](OC)C[C@H]1[C@H](OC)[C@@H](C)C(=O)N[C@@H](C)C(N)c1ccccc1)OC)N(C)C(=O)[C@@H](NC(=O)[C@H](C(C)C)N(C)C)C(C)C (mixture of isomers) [Compound I-37, (2S)—N-((3R,4S)-1-((2S,4R)-2-((1R,2R)-3-(((2S)-1-amino-1-phenylpropan-2-yl)amino)-1-methoxy-2-methyl-3-oxopropyl)-4-methoxypyrrolidin-1-yl)-3-methoxy-5-methyl-1-oxoheptan-4-yl)-2-((S)-2-(dimethylamino)-3-methylbutaneamido)-N,3-dimethylbutanamide]	2.82	
CC[C@H](C)[C@@H]([C@@H](CC(=O)N1C[C@H](OC)C[C@H]1[C@H](OC)[C@@H](C)C(=O)NCCc1cccs1)OC)N(C)C(=O)[C@@H](NC(=O)[C@@H](NC)C(C)C)C(C)C [Compound I-39, (2S)—N-((3R,4S)-3-methoxy-1-((2S,4R)-4-methoxy-2-((1R,2R)-1-methoxy-2-methyl-3-oxo-3-((2-(thiophen-2-yl)ethyl)amino)propyl)pyrrolidin-1-yl)-5-methyl-1-oxoheptan-4-yl)-N,3-dimethyl-2-((S)-3-methyl-2-(methylamino)butaneamido)butanamide]	0.67	
CC[C@H](C)[C@@H]([C@@H](CC(=O)N1C[C@H](OC)C[C@H]1[C@H](OC)[C@@H](C)C(=O)NCC(=O)c1ccccc1)OC)N(C)C(=O)[C@@H](NC(=O)[C@@H](NC)C(C)C)C(C)C [Compound I-34]	9.71	10.9
CC[C@H](C)[C@@H]([C@@H](CC(=O)N1C[C@H](OC)C[C@H]1[C@H](OC)[C@@H](C)C(=O)N[C@H](C)C(=O)c1ccccc1)OC)N(C)C(=O)[C@@H](NC(=O)[C@@H](NC)C(C)C)C(C)C (stereo in doubt) [Compound I-6, (2 S)—N-((3R,4S)-3-methoxy-1-((2R,4R)-4-methoxy-2-((1R,2R)-1-methoxy-2-methyl-3-oxo-3-(((R)-1-oxo-1-phenylpropan-2-yl)amino)propyl)pyrrolidin-1-yl)-5-methyl-1-oxoheptan-4-yl)-N,3-dimethyl-2-((S)-3-methyl-2-(methylamino)butaneamido)butanamide]	0.32	
CC[C@H](C)[C@@H]([C@@H](CC(=O)N1C[C@H](OC)C[C@H]1[C@H](OC)[C@@H](C)C(=O)NCC(=O)c1ccc(F)cc1)OC)N(C)C(=O)[C@@H](NC(=O)[C@@H](NC)C(C)C)C(C)C [Compound I-30]	0.77	
CC[C@H](C)[C@@H]([C@@H](CC(=O)N1C[C@H](OC)C[C@H]1[C@H](OC)[C@@H](C)C(=O)N[C@H](C)C(N)c1ccccc1)OC)N(C)C(=O)[C@@H](NC(=O)[C@H](C(C)C)N(C)C)C(C)C (mixture of isomers) [Compound I-36, (2S)—N-((3R,4S)-1-((2S)-2-((1R,2R)-3-(((2R)-1-amino-1-phenylpropan-2-yl)amino)-1-methoxy-2-methyl-3-oxopropyl)-4-methoxypyrrolidin-1-yl)-3-methoxy-5-methyl-1-oxoheptan-4-yl)-2-((S)-2-(dimethylamino)-3-methylbutaneamido)-N,3-dimethylbutanamide]	0.51	
CC[C@H](C)[C@@H]([C@@H](CC(=O)N1C[C@@H](O)C[C@H]1[C@H](OC)[C@@H](C)C(=O)N[C@@H](C)C(=O)c1ccc(F)cc1)OC)N(C)C(=O)[C@@H](NC(=O)[C@@H](NC)C(C)C)C(C)C [Compound I-43, (2S)—N-((3R,4S)-1-((2S,4S)-2-((1R,2R)-3-(((S)-1-(4-fluorophenyl)-1-oxopropan-2-yl)amino)-1-methoxy-2-methyl-3-oxopropyl)-4-hydroxypyrrolidin-1-yl)-3-methoxy-5-methyl-1-oxoheptan-4-yl)-N,3-dimethyl-2-((S)-3-methyl-2-(methylamino)butaneamido)butanamide]	6.43	
CC[C@H](C)[C@@H]([C@@H](CC(=O)N1C[C@H](OC)CC1[C@H](OC)[C@@H](C)C(=O)NCC(=O)c1ccc(F)cc1C)OC)N(C)C(=O)[C@@H](NC(=O)[C@H](C(C)C)N(C)C)C(C)C (stereo partly shown) [Compound I-26]	0.79	
CC[C@H](C)[C@@H]([C@@H](CC(=O)N1C[C@H](OC)C[C@@H]1[C@H](OC)[C@@H](C)C(=O)NCCc1c(F)cccc1F)OC)N(C)C(=O)[C@@H](NC(=O)[C@@H](NC)C(C)C)C(C)C [Compound I-1, (S)—N-((3R,4S,5S)-1-((2R,4R)-2-((1R,2R)-3-((2,6-difluorophenethyl)amino)-1-methoxy-2-methyl-3-oxopropyl)-4-methoxypyrrolidin-1-yl)-3-methoxy-5-methyl-1-oxoheptan-4-yl)-N,3-dimethyl-2-((S)-3-methyl-2-(methylamino)butaneamido)butanamide]	0.12	
CC[C@H](C)[C@@H]([C@@H](CC(=O)N1C[C@H](OC)C[C@@H]1[C@H](OC)[C@@H](C)C(=O)N[C@H](C)/C(=N\O)c1cccc(OC)c1)OC)N(C)C(=O)[C@@H](NC(=O)[C@@H](NC)C(C)C)C(C)C [Compound I-19, (S)—N-((3R,4S,5 S)-1-((2R,4R)-2-((1R,2R)-3-(((R,Z)-1-(hydroxyimino)-1-(3-methoxyphenyl)propan-2-yl)amino)-1-methoxy-2-methyl-3-oxopropyl)-4-methoxypyrrolidin-1-yl)-3-methoxy-5-methyl-1-oxoheptan-4-yl)-N,3-dimethyl-2-((S)-3-methyl-2-(methylamino)butaneamido)butanamide]	0.09	
CC[C@H](C)[C@@H]([C@@H](CC(=O)N1C[C@@H](O)C[C@H]1[C@H](OC)[C@@H](C)C(=O)N[C@@H](C)C(=O)c1ccc(F)cc1)OC)N(C)C(=O)[C@@H](NC(=O)[C@H](C(C)C)N(C)C)C(C)C [Compound I-41, (2S)-2-((S)-2-(dimethylamino)-3-methylbutaneamido)-N-((3R,4S)-1-((2S,4S)-2-((1R,2R)-3-(((S)-1-(4-fluorophenyl)-1-oxopropan-2-yl)amino)-1-methoxy-2-methyl-3-oxopropyl)-4-hydroxypyrrolidin-1-yl)-3-methoxy-5-methyl-1-oxoheptan-4-yl)-N,3-dimethylbutanamide]	1.83	
CC[C@H](C)[C@@H]([C@@H](CC(=O)N1C[C@H](OC)C[C@@H]1[C@H](OC)[C@@H](C)C(=O)N[C@@H](C)C(=O)c1c(F)cccc1F)OC)N(C)C(=O)[C@@H](NC(=O)[C@@H](NC)C(C)C)C(C)C [Compound I-17, (S)—N-((3R,4S,5S)-1-((2R,4R)-2-((1R,2R)-3-(((S)-1-(2,6-difluorophenyl)-1-oxopropan-2-yl)amino)-1-methoxy-2-methyl-3-oxopropyl)-4-methoxypyrrolidin-1-yl)-3-methoxy-5-methyl-1-oxoheptan-4-yl)-N,3-dimethyl-2-((S)-3-methyl-2-(methylamino)butaneamido)butanamide]	0.25	
CC[C@H](C)[C@@H]([C@@H](CC(=O)N1C[C@@H](O)C[C@H]1[C@H](OC)[C@@H](C)C(=O)NCCc1c(F)cccc1F)OC)N(C)C(=O)[C@@H](NC(=O)[C@H](C(C)C)N(C)C)C(C)C [Compound I-40]	0.23	
CC[C@H](C)[C@@H]([C@@H](CC(=O)N1C[C@H](OC)C[C@H]1[C@H](OC)[C@@H](C)C(=O)NC/C(=N/O)c1ccc(OC)cc1F)OC)N(C)C(=O)[C@@H](NC(=O)[C@@H](NC)C(C)C)C(C)C [Compound I-25]	0.41	
CC[C@H](C)[C@@H]([C@@H](CC(=O)N1C[C@@H](OC)C[C@@H]1[C@H](OC)[C@@H](C)C(=O)NCCc1ccccc1)OC)N(C)C(=O)[C@@H](NC(=O)[C@H](C(C)C)N(C)C)C(C)C [Compound I-10, (S)-2-((S)-2-(dimethylamino)-3-methylbutaneamido)-N-((3R,4S,5S)-3-methoxy-1-((2R,4S)-4-methoxy-2-((1R,2R)-1-methoxy-2-methyl-3-oxo-3-(phenethylamino)propyl)pyrrolidin-1-yl)-5-methyl-1-oxoheptan-4-yl)-N,3-dimethylbutanamide]	0.24	
CC[C@H](C)[C@@H]([C@@H](CC(=O)N1C[C@H](OC)C[C@@H]1[C@H](OC)[C@@H](C)C(=O)N[C@H](C)C(=NO)c1cccc(OC)c1)OC)N(C)C(=O)[C@@H](NC(=O)[C@H](C(C)C)N(C)C)C(C)C [Compound I-20, (S)-2-((S)-2-(dimethylamino)-3-methylbutaneamido)-N-((3R,4S,5S)-1-((2R,4R)-2-((1R,2R)-3-(((R)-1-(hydroxyimino)-1-(3-methoxyphenyl)propan-2-yl)amino)-1-methoxy-2-methyl-3-oxopropyl)-4-methoxypyrrolidin-1-yl)-3-methoxy-5-methyl-1-oxoheptan-4-yl)-N,3-dimethylbutanamide]	0.47	
CC[C@H](C)[C@@H]([C@@H](CC(=O)N1C[C@H](OC)CC1[C@H](OC)[C@@H](C)C(=O)NCC(=O)c1ccc(F)cc1C)OC)N(C)C(=O)[C@@H](NC(=O)[C@@H](NC)C(C)C)C(C)C (stereo partly shown) [Compound I-27]	0.5	
CC[C@H](C)[C@@H]([C@@H](CC(=O)N1C[C@@H](NC)C[C@H]1[C@H](OC)[C@@H](C)C(=O)NCCc1c(F)cccc1F)OC)N(C)C(=O)[C@@H](NC(=O)[C@H](C(C)C)N(C)C)C(C)C [Compound I-45, (2S)—N-((3R,4S)-1-((2S,4S)-2-((1R,2R)-3-((2,6-difluorophenethyl)amino)-1-methoxy-2-methyl-3-oxopropyl)-4-(methylamino)pyrrolidin-1-yl)-3-methoxy-5-methyl-1-oxoheptan-4-yl)-2-((S)-2-(dimethylamino)-3-methylbutaneamido)-N,3-dimethylbutanamide]	0.34	
